Assay results reported in patent US9765105B2, “Macrolide compound” (Pulike Biological Engineering, Inc., priority 2013, dated 2017).

How the values were obtained:
[1] = tested on: Staphylococcus aureus CVCC26003; experiment: in vitro susceptibility, MIC by mini broth dilution; format: cell-based; conditions: strain CVCC26003
Procedure, shortened: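 MICs were determined by mini broth dilution under NCCLS standards in CAMHB, using revived S. aureus CVCC26003 subcultured 20 h at 35° C. Compounds were two-fold serially diluted in DMSO across 11 wells, with duplicate rows. Bacterial suspension was diluted 1:200 in medium before inoculation.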

Haemophilus parasuis = experiment: as above; format: cell-based
Procedure, shortened: (§1)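 MICs determined by mini broth dilution following NCCLS standards, using two-fold serial dilutions of compound in DMSO across 11 gradients, in duplicate rows. Strains were revived and subcultured at 35 °C for 20 h. Bacterial suspension was diluted 1:200 in liquid medium.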

[2] = tested on: Pasteurella multocida CVCC399; experiment: as above; format: cell-based; conditions: strain CVCC399
Procedure, shortened: as §1

[3] = tested on: Streptococcus equines CVCC556; experiment: as above; format: cell-based; conditions: strain CVCC556
Procedure, shortened: as §1

[4] = tested on: Actinobacillus pleuropneumoniae CVCC262; experiment: as above; format: cell-based; conditions: strain CVCC262
Procedure, shortened: as §1

[5] = acute toxicity test, single gastric perfusion; format: in vivo, Balb/c mice; conditions: 2000 mg/kg once by gastric perfusion, 85 mg/ml suspension; deaths after 6 h
From the text: The marked parts of mice in the Syzx-24 group were respectively left hinder limbs (female), necks (female), right hinder limbs (male), and necks (male). The mice in the solvent control group were not marked.

[6] = tested on: Streptococcus pneumoniae CMCC 31203; experiment: in vivo antibacterial test, survival of infected mice; parameters: species or system BALB/c mice; conditions: observed until the seventh day
[7] = orally intoxicated mice; reported; cited from earlier work
[8] = acute oral toxicity test, LD50 by improved karber method; conditions: for LD50: per os, gavaged once, in 0.2% sodium carboxymethylcellulose, observed 7 days; for LD50 at 7 days: both, Konmin, mouse, in vivo, po
[9] = medicament control group, Tulathromycin 10 mg per kg after infection
[10] = mice infected i.p. with Streptococcus pneumoniae, 5 mg per kg subcutaneous for 3 consecutive days

Row | Compound | MIC values, Staphylococcus aureus CVCC26003 [1] [ug/mi] | MIC values, Haemophilus parasuis (Haemophilus parasuis) [ug/mi] | MIC values, Pasteurella multocida CVCC399 [2] [ug/mi] | MIC values, Streptococcus equines CVCC556 [3] [ug/mi] | MIC values, Actinobacillus pleuropneumoniae CVCC262 [4] [ug/mi] | Animal survival rate (surviving/total animals) [6, 10] | LD50 at 7 days [8] [mg/kg] | further results
1 | CC[C@H]1OC(=O)[C@H](C)[C@@H](O[C@H]2C[C@@](C)(OC)[C@](O)(CN(C)C)[C@H](C)O2)[C@H](C)[C@@H](O[C@@H]2O[C@H](C)C[C@H](N(C)C)[C@H]2O)[C@](C)(O)C[C@@H](C)NC[C@H](C)[C@@H](O)[C@]1(C)O [Syzx-24] | 0.5 | 0.5 | 0.25 | 0.25 | 0.25 | – | – | Death rate [5]: 0%; Number of dead animals/total number of animals [5]: 0/4
2 | CCCNC[C@]1(O)[C@H](C)O[C@@H](O[C@H]2[C@H](C)[C@@H](O[C@@H]3O[C@H](C)C[C@H](N(C)C)[C@H]3O)[C@](C)(O)C[C@@H](C)CN[C@H](C)[C@@H](O)[C@](C)(O)[C@@H](CC)OC(=O)[C@@H]2C)C[C@@]1(C)OC [Tulathromycin, reference compound] | 0.25 | 0.25 | 0.25 | 0.25 | 0.25 | – | – | Animal survival rate [6, 9]: 70%; Animal survival rate (surviving/total animals) [6, 9]: 7/10; minimum lethal dose [7]: higher than 2000 mg/kg·d-1; LD50 [8]: 2379.2 mg/kg; Death rate [5]: 75%; Number of dead animals/total number of animals [5]: 3/4 (2 female and 1 male)
3 | CCCNC[C@]1(O)[C@H](C)O[C@@H](O[C@H]2[C@H](C)[C@@H](O[C@@H]3O[C@H](C)C[C@H](N(C)C)[C@H]3O)[C@](C)(O)C[C@@H](C)NC[C@H](C)[C@@H](O)[C@](C)(O)[C@@H](CC)OC(=O)[C@@H]2C)C[C@@]1(C)OC [syzx-1, (2R,3S,4R,5S,8R,10R,11R,12S,13S,14R)-13-[(2,6-dideoxy-3-C-methyl-3-O-methyl-4-C-[(propylamino)methyl]-α-L-ribopyranosyl)oxy]-2-ethyl-3,4,10-trihydroxy-3,5,8,10,12,14-hexamethyl-11-[[3,4,6-trideoxy-3-(dimethylamino)-β-D-xylo-hexopyranosy]oxy]-1-oxa-7-azacyclopentadecan-15-one] | 0.125 | 0.125 | 1 | 0.125 | 0.125 | 8/10 | – | Animal survival rate [6, 10]: 80%; LD50 [8]: 2584.8 mg/kg
4 | CCNC[C@]1(O)[C@H](C)OC(O[C@@H]2[C@@H](C)[C@@H](O[C@@H]3O[C@H](C)C[C@H](N(C)C)[C@H]3O)[C@](C)(O)C[C@@H](C)NC[C@@H](C)[C@H](O)[C@](C)(O)[C@H](CC)OC(=O)[C@@H]2C)C[C@@]1(C)OC (stereo partly drawn) [syzx-10, (2R,3S,4R,5S,8R,10R,11R,12S,13S,14R)-13-[(2,6-dideoxy-3-C-methyl-3-O-methyl-4-C-[(ethylamino)methyl]-α-L-ribopyranosyl)oxy]-2-ethyl-3,4,10-trihydroxy-3,5,8,10,12,14-hexamethyl-11-[[3,4,6-trideoxy-3-(dimethylamino)-β-D-xylo-hexopyranosy]oxy]-1-oxa-7-azacyclopentadecan-15-one] | – | – | – | – | – | 9/10 | 2810 | –
5 | CC[C@@H]1OC(=O)[C@H](C)[C@H](OC2C[C@@](C)(OC)[C@](O)(CNC(C)C)[C@H](C)O2)[C@@H](C)[C@@H](O[C@@H]2O[C@H](C)C[C@H](N(C)C)[C@H]2O)[C@](C)(O)C[C@@H](C)NC[C@@H](C)[C@H](O)[C@]1(C)O (stereo partly drawn) [syzx-11, (2R,3S,4R,5S,8R,10R,11R,12S,13S,14R)-13-[(2,6-dideoxy-3-C-methyl-3-O-methyl-4-C-[(isopropylamino)methyl]-α-L-ribopyranosyl)oxy]-2-ethyl-3,4,10-trihydroxy-3,5,8,10,12,14-hexamethyl-11-[[3,4,6-trideoxy-3-(dimethylamino)-β-D-xylo-hexopyranosy]oxy]-1-oxa-7-azacyclopentadecan-15-one] | – | – | – | – | – | 8/10 | 4200 | –
6 | CC[C@@H]1OC(=O)[C@H](C)[C@H](OC2C[C@@](C)(OC)[C@](O)(CNCC(C)C)[C@H](C)O2)[C@@H](C)[C@@H](O[C@@H]2O[C@H](C)C[C@H](N(C)C)[C@H]2O)[C@](C)(O)C[C@@H](C)NC[C@@H](C)[C@H](O)[C@]1(C)O (stereo partly drawn) [syzx-12, (2R,3S,4R,5S,8R,10R,11R,12S,13S,14R)-13-[(2,6-dideoxy-3-C-methyl-3-O-methyl-4-C-[(isobutylamino)methyl]-α-L-ribopyranosyl)oxy]-2-ethyl-3,4,10-trihydroxy-3,5,8,10,12,14-hexamethyl-11-[[3,4,6-trideoxy-3-(dimethylamino)-β-D-xylo-hexopyranosy]oxy]-1-oxa-7-azacyclopentadecan-15-one] | – | – | – | – | – | 8/10 | 4310 | –
7 | CC[C@@H]1OC(=O)[C@H](C)[C@H](OC2C[C@@](C)(OC)[C@](O)(CNC(C)(C)C)[C@H](C)O2)[C@@H](C)[C@@H](O[C@@H]2O[C@H](C)C[C@H](N(C)C)[C@H]2O)[C@](C)(O)C[C@@H](C)NC[C@@H](C)[C@H](O)[C@]1(C)O (some centres unmarked) [syzx-14] | – | – | – | – | – | 8/10 | 2590 | –
8 | CC[C@@H]1OC(=O)[C@H](C)[C@H](OC2C[C@@](C)(OC)[C@](O)(CN3CCCCC3)[C@H](C)O2)[C@@H](C)[C@@H](O[C@@H]2O[C@H](C)C[C@H](N(C)C)[C@H]2O)[C@](C)(O)C[C@@H](C)NC[C@@H](C)[C@H](O)[C@]1(C)O (stereo partly drawn) [syzx-15, (2R,3S,4R,5S,8R,10R,11R,12S,13S,14R)-13-[(2,6-dideoxy-3-C-methyl-3-O-methyl-4-C-[piperidinylmethyl]-α-L-ribopyranosyl)oxy]-2-ethyl-3,4,10-trihydroxy-3,5,8,10,12,14-hexamethyl-11-[[3,4,6-trideoxy-3-(dimethylamino)-β-D-xylo-hexopyranosy]oxy]-1-oxa-7-azacyclopentadecan-15-one] | – | – | – | – | – | 8/10 | 2660 | –
9 | CC[C@@H]1OC(=O)[C@H](C)[C@H](OC2C[C@@](C)(OC)[C@](O)(CNCC3CC3)[C@H](C)O2)[C@@H](C)[C@@H](O[C@@H]2O[C@H](C)C[C@H](N(C)C)[C@H]2O)[C@](C)(O)C[C@@H](C)NC[C@@H](C)[C@H](O)[C@]1(C)O (stereo partly drawn) [syzx-17, (2R,3S,4R,5S,8R,10R,11R,12S,13S,14R)-13-[(2,6-dideoxy-3-C-methyl-3-O-methyl-4-C-[(cyclopropylmethylamino)methyl]-α-L-ribopyranosyl)oxy]-2-ethyl-3,4,10-trihydroxy-3,5,8,10,12,14-hexamethyl-11-[[3,4,6-trideoxy-3-(dimethylamino)-β-D-xylo-hexopyranosy]oxy]-1-oxa-7-azacyclopentadecan-15-one] | – | – | – | – | – | 8/10 | 2670 | –
10 | CC[C@@H]1OC(=O)[C@H](C)[C@H](OC2C[C@@](C)(OC)[C@](O)(CNCCOC)[C@H](C)O2)[C@@H](C)[C@@H](O[C@@H]2O[C@H](C)C[C@H](N(C)C)[C@H]2O)[C@](C)(O)C[C@@H](C)NC[C@@H](C)[C@H](O)[C@]1(C)O (some centres unmarked) [syzx-58] | – | – | – | – | – | 8/10 | 3550 | –
11 | CCCNC[C@]1(O)[C@H](C)O[C@@H](O[C@H]2[C@H](C)[C@@H](O[C@@H]3O[C@H](C)C[C@H](N(C)C)[C@H]3O)[C@](C)(O)C[C@@H](C)N(CCC)C[C@H](C)[C@@H](O)[C@](C)(O)[C@@H](CC)OC(=O)[C@@H]2C)C[C@@]1(C)OC [syzx-101, (2R,3S,4R,5S,8R,10R,11R,12S,13S,14R)-13-[(2,6-dideoxy-3-C-methyl-3-O-methyl-4-C-[(n-propylamino)-methyl]-α-L-ribopyranosyl)oxy]-2-ethyl-3,4,10-trihydroxy-3,5,8,10,12,14-hexamethyl-7-propyl-11-[[3,4,6-trideoxy-3-(dimethylamino)-β-D-xylo-hexopyranosy]oxy]-1-oxa-7-azacyclopentadecan-15-one] | 0.125 | 0.125 | 0.125 | 0.125 | 0.125 | 9/10 | – | Animal survival rate [6, 10]: 90%; LD50 [8]: 3760.6 mg/kg
12 | CCCN1C[C@@H](C)[C@@H](O)[C@](C)(O)[C@H](CC)OC(=O)[C@H](C)[C@H](OC2C[C@@](C)(OC)[C@](O)(CN(C)CC)[C@H](C)O2)[C@H](C)[C@@H](O[C@@H]2O[C@H](C)C[C@H](N(C)C)[C@H]2O)[C@](C)(O)C[C@H]1C (some centres unmarked) [syzx-213] | – | – | – | – | – | 9/10 | 2790 | –
